Data from patent US11161846B2, “Substituted pyrazolo[4,3-b]pyridines and their use as GluN2B receptor modulators” (JANSSEN PHARMACEUTICA NV, priority 2019, dated 2021).
Where a name gives a salt, the structure may show the parent alone.

target: T1, human GluN1/GluN2B NMDA receptors (Homo sapiens, UniProt Q05586+Q13224); experiment: Calcium flux (FLIPR) assay on cloned human NR1/GluN2B ion channels expressed in mammalian cells, standard assay; type: cell-based; conditions: glutamate ~EC40 and 10 μM glycine, stable cell line with Tet-On induced expression
T1 construct: expressed in transfected cells
Method: Effects of Test Articles on Cloned Human NR1/GluN2B Ion Channels Expressed in Mammalian Cells
NMDA receptors are ion channels that are highly permeable to Ca^2+ ions, rendering it possible to monitor NMDA receptor function using cell-based calcium flux assay. In this assay, co-agonists glutamate and glycine are added to cells heterologously expressing human GluN1/GluN2B NMDA receptors to initiate cellular Ca^2+ influx. The time course of the changes in intracellular calcium is measured using a fluorescent dye and a FLIPR (Fluorometric Imaging Plate Reader) device.
Twenty four hours before measurements, the expression of the NMDA receptors in the stable cell line is induced with Tet-On inducible system in the presence of a non-selective NMDA receptor blocker. On the day of the experiment, cell culture media is carefully washed and the cells are loaded with Calcium 5 Dye Kit (Molecular Devices) in dye loading buffer containing 137 mM NaCl, 4 mM KCl, 2 mM CaCl2, 0.5 mM MgCl2 (standard assay) or 1.5 mM MgCl2 (HTS assay), 10 mM HEPES and 5 mM D-glucose; pH 7.4. After 1 h incubation at the room temperature, the dye is washed away with the assay buffer (137 mM NaCl (standard assay) or 150 mM (HTS assay), 4 mM KCl (standard assay) or 3 mM (HTS assay), 2 mM CaC2, 0.01 mM EDTA, 10 mM HEPES and 5 mM D-glucose; pH 7.4) In the FLIPR TETRA reader, various concentrations of the test compounds are added to the cells for 5 min while fluorescence is monitored to detect potential agonist activity. Next, co-agonists, glutamate and glycine are added for another 5 minutes. The concentration of glutamate corresponding to ˜EC40 (standard assay) or EC40 (HTS assay) is used to maximize the assay's signal window and ability to detect NMDA receptor antagonists and negative allosteric modulators. A saturating concentration (10 μM) of glycine is also present in the assay. A non-selective NMDA receptor antagonist, (+)MK-801 is used as a positive control for antagonist activity. The fluorescent signal in the presence of test compounds is quantified and normalized to the signal defined by the appropriate control wells.

T1 sequence (Q13224 27-1484, other chains not shown): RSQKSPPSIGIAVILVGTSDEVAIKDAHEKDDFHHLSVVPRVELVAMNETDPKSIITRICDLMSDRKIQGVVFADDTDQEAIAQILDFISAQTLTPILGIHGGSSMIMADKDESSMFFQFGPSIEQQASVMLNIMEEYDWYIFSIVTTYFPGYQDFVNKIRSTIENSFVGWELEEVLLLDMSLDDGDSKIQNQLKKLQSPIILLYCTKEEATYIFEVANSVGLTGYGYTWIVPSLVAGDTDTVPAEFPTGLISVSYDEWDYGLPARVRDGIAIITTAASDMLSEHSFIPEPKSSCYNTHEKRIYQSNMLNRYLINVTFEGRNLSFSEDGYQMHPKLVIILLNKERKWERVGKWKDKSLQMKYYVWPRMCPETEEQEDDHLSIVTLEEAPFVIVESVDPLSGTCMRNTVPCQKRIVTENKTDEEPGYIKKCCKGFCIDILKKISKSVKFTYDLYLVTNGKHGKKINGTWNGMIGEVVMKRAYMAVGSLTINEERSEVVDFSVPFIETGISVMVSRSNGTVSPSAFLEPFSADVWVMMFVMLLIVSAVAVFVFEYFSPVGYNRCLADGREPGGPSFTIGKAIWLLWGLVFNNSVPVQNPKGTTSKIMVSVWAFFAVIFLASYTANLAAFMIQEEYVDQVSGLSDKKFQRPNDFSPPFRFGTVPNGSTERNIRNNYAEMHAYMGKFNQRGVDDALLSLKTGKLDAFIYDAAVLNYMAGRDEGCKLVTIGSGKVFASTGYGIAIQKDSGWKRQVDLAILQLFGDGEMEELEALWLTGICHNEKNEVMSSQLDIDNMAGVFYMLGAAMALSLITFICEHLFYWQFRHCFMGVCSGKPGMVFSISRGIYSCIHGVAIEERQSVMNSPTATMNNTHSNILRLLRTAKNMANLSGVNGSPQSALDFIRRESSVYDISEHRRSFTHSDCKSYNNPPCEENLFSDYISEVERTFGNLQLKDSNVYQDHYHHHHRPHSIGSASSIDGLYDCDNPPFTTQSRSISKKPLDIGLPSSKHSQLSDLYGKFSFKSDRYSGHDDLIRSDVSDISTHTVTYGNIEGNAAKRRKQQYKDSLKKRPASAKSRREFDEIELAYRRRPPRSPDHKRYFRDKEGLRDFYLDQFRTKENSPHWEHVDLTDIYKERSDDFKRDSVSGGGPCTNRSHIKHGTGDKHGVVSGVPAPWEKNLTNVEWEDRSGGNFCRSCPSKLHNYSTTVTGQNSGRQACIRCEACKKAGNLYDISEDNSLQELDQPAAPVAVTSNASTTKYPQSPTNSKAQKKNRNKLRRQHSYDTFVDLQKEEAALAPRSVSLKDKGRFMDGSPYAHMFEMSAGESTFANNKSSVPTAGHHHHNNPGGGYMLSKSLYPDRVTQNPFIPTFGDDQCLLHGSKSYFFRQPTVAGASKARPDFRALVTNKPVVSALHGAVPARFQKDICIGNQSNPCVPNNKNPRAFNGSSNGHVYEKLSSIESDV

Row | Compound | IC50 [nM]
1 | O=C1NCC(Cn2ncc3ncc(-c4ccc(Cl)c(OC(F)F)c4)cc32)O1 (racemic) [Example 126, (RS)-5-[[6-[4-Chloro-3-(difluoromethoxy)phenyl]pyrazolo[4,3-b]pyridin-1-yl]methyl]oxazolidin-2-one] | 306
2 | CC(F)(F)c1cc(-c2cnc3cnn(CC4CNC(=O)O4)c3c2)ccc1F (racemic) [Example 127, (RS)-5-[[6-[3-(1,1-Difluoroethyl)-4-fluoro-phenyl]pyrazolo[4,3-b]pyridin-1-yl]methyl]oxazolidin-2-one] | 973
3 | CN1CC(Cn2ncc3ncc(-c4ccc(F)c(OC(F)F)c4)cc32)OC1=O (racemic) [Example 128, (RS)-5-((6-(3-(Difluoromethoxy)-4-fluorophenyl)-1H-pyrazolo[4,3-b]pyridin-1-yl)methyl)-3-methyloxazolidin-2-one] | 165
4 | O=C1OC(Cn2ncc3ncc(-c4ccc(F)c(C(F)F)c4)cc32)CN1C1CC1 (racemic) [Example 134, (RS)-3-Cyclopropyl-5-[[6-[3-(difluoromethyl)-4-fluoro-phenyl]pyrazolo[4,3-b]pyridin-1-yl]methyl]oxazolidin-2-one] | 1630
5 | CC[S+]([O-])Cn1ncc2ncc(-c3ccc(F)c(C(F)F)c3)cc21 (single isomer, unassigned) [Example 84, (S*)-6-(3-(Difluoromethyl)-4-fluorophenyl)-1-((ethylsulfinyl)methyl)-1H-pyrazolo[4,3-b]pyridine] | 29
6 | CCC(=O)Cn1ncc2ncc(-c3cc(F)cc(F)c3)cc21 [Example 1, 1-[6-(3,5-Difluorophenyl)pyrazolo[4,3-b]pyridin-1-yl]butan-2-one] | 19
7 | CC(C)C(=O)Cn1ncc2ncc(-c3cccc(C(F)(F)F)c3)cc21 [Example 2, 3-Methyl-1-[6-[3-(trifluoromethyl)phenyl]pyrazolo[4,3-b]pyridin-1-yl]butan-2-one] | 61
8 | Cc1cc(-c2cnc3cnn(CC(=O)C(C)C)c3c2)ccc1F [Example 7, 1-[6-(4-Fluoro-3-methyl-phenyl)pyrazolo[4,3-b]pyridin-1-yl]-3-methyl-butan-2-one] | 21
9 | O=C(Cn1ncc2ncc(-c3cc(F)c(F)c(F)c3)cc21)C1CC1 [Example 9, 1-Cyclopropyl-2-[6-(3,4,5-trifluorophenyl)pyrazolo[4,3-b]pyridin-1-yl]ethanone] | 30
10 | CCS(=O)(=O)Cn1ncc2ncc(-c3ccc(F)c(OC(F)F)c3)cc21 [Example 13, 6-[3-(Difluoromethoxy)-4-fluoro-phenyl]-1-(ethylsulfonylmethyl)pyrazolo[4,3-b]pyridine] | 1800
11 | O=C(Cn1ncc2ncc(-c3ccc(F)c(C(F)F)c3)cc21)c1ccccn1 [Example 14, 2-[6-[3-(Difluoromethyl)-4-fluoro-phenyl]pyrazolo[4,3-b]pyridin-1-yl]-1-(2-pyridyl)ethanone] | 112
12 | O=C(Cn1ncc2ncc(-c3ccc(F)c(C(F)F)c3)cc21)c1ccc(F)cn1 [Example 15, 2-(6-(3-(Difluoromethyl)-4-fluorophenyl)-1H-pyrazolo[4,3-b]pyridin-1-yl)-1-(5-fluoropyridin-2-yl)ethan-1-one] | 160
13 | O=C(Cn1ncc2ncc(-c3ccc(F)c(C(F)F)c3)cc21)c1cccnc1 [Example 16, 2-(6-(3-(Difluoromethyl)-4-fluorophenyl)-1H-pyrazolo[4,3-b]pyridin-1-yl)-1-(pyridin-3-yl)ethan-1-one] | 90
14 | O=C1NC[C@@H](Cn2ncc3ncc(-c4ccc(F)c(C(F)F)c4)cc32)O1 [Example 21, (S)-5-[[6-[3-(Difluoromethyl)-4-fluoro-phenyl]pyrazolo[4,3-b]pyridin-1-yl]methyl]oxazolidin-2-one] | 1840
15 | O=C1NC[C@H](Cn2ncc3ncc(-c4ccc(F)c(C(F)F)c4)cc32)O1 [Example 22, (R)-5-[[6-[3-(Difluoromethyl)-4-fluoro-phenyl]pyrazolo[4,3-b]pyridin-1-yl]methyl]oxazolidin-2-one] | 187
16 | CC(=O)Cn1ncc2ncc(-c3ccc(F)c(C(F)F)c3)cc21 [Example 23, 1-[6-[3-(Difluoromethyl)-4-fluoro-phenyl]pyrazolo[4,3-b]pyridin-1-yl]propan-2-one] | 14
17 | CC(=O)Cn1ncc2ncc(-c3ccc(F)c(C)c3)cc21 [Example 24, 1-[6-(4-Fluoro-3-methyl-phenyl)pyrazolo[4,3-b]pyridin-1-yl]propan-2-one] | 15
18 | CC(=O)Cn1ncc2ncc(-c3ccc(Cl)c(OC(F)F)c3)cc21 [Example 26, 1-[6-[4-Chloro-3-(difluoromethoxy)phenyl]pyrazolo[4,3-b]pyridin-1-yl]propan-2-one] | 36
19 | CCC(=O)Cn1ncc2ncc(-c3ccc(Cl)s3)cc21 [Example 27, 1-[6-(5-Chloro-2-thienyl)pyrazolo[4,3-b]pyridin-1-yl]butan-2-one] | 13
20 | CCC(=O)Cn1ncc2ncc(-c3ccc(F)cc3)cc21 [Example 28, 1-[6-(4-Fluorophenyl)pyrazolo[4,3-b]pyridin-1-yl]butan-2-one] | 32
21 | CCC(=O)Cn1ncc2ncc(-c3cccc(F)c3)cc21 [Example 29, 1-[6-(3-Fluorophenyl)pyrazolo[4,3-b]pyridin-1-yl]butan-2-one] | 28
22 | CCC(=O)Cn1ncc2ncc(-c3cccc(C(F)F)c3)cc21 [Example 30, 1-[6-[3-(Difluoromethyl)phenyl]pyrazolo[4,3-b]pyridin-1-yl]butan-2-one] | 27
23 | CCC(=O)Cn1ncc2ncc(-c3cccc(C(C)(F)F)c3)cc21 [Example 31, 1-[6-[3-(1,1-Difluoroethyl)phenyl]pyrazolo[4,3-b]pyridin-1-yl]butan-2-one] | 35
24 | CCC(=O)Cn1ncc2ncc(-c3ccc(F)c(C)c3)cc21 [Example 32, 1-[6-(4-Fluoro-3-methyl-phenyl)pyrazolo[4,3-b]pyridin-1-yl]butan-2-one Trifluoroacetate Salt] | 12
25 | CCC(=O)Cn1ncc2ncc(-c3cccc(F)c3F)cc21 [Example 33, 1-[6-(2,3-Difluorophenyl)pyrazolo[4,3-b]pyridin-1-yl]butan-2-one] | 46
26 | CCC(=O)Cn1ncc2ncc(-c3ccc(F)c(F)c3)cc21 [Example 34, 1-[6-(3,4-Difluorophenyl)pyrazolo[4,3-b]pyridin-1-yl]butan-2-one] | 17
27 | CCC(=O)Cn1nc(F)c2ncc(-c3ccc(F)c(F)c3)cc21 [Example 35, 1-[6-(3,4-Difluorophenyl)-3-fluoro-pyrazolo[4,3-b]pyridin-1-yl]butan-2-one] | 5
28 | CCC(=O)Cn1ncc2ncc(-c3ccc(F)c(C(C)(F)F)c3)cc21 [Example 37, 1-[6-[3-(1,1-Difluoroethyl)-4-fluoro-phenyl]pyrazolo[4,3-b]pyridin-1-yl]butan-2-one] | 41
29 | CCC(=O)Cn1ncc2ncc(-c3ccc(F)c(C(F)(F)F)c3)cc21 [Example 39, 1-[6-[4-Fluoro-3-(trifluoromethyl)phenyl]pyrazolo[4,3-b]pyridin-1-yl]butan-2-one] | 75
30 | CCC(=O)Cn1ncc2ncc(-c3ccc(F)c(OC(F)F)c3)cc21 [Example 40, 1-[6-[3-(Difluoromethoxy)-4-fluoro-phenyl]pyrazolo[4,3-b]pyridin-1-yl]butan-2-one] | 11
